According to patent US10065970B2 (Genentech, Inc., priority 2015, dated 2018):

Biological target: PI3Kα (alpha) (Homo sapiens (Human), UniProt P42336)
Assay: p110α (alpha) PI3K Binding Assay (ADP-Glo lipid kinase reaction)
Type: biochemical
Conditions: PI3K alpha 0.2 nM, ATP 40 μM, PIP2:3PS 50 μM, 120 min, room temperature; Ki by Morrison Equation; read-out: PI3Kα-(alpha) ATP (Ki) micromolar
Method in brief: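 Enzyme with PIP2:3PS lipid substrate and ATP/MgCl2 in 50 mM HEPES, 50 mM NaCl, 3 mM MgCl2, 0.01% BSA, 1% DMSO, 120 min at room temperature. ADP formed detected by ADP-Glo luminescence. Ki from 10-point dose-response curves via the Morrison equation.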

PI3Kα (alpha), sequence (P42336 whole entry): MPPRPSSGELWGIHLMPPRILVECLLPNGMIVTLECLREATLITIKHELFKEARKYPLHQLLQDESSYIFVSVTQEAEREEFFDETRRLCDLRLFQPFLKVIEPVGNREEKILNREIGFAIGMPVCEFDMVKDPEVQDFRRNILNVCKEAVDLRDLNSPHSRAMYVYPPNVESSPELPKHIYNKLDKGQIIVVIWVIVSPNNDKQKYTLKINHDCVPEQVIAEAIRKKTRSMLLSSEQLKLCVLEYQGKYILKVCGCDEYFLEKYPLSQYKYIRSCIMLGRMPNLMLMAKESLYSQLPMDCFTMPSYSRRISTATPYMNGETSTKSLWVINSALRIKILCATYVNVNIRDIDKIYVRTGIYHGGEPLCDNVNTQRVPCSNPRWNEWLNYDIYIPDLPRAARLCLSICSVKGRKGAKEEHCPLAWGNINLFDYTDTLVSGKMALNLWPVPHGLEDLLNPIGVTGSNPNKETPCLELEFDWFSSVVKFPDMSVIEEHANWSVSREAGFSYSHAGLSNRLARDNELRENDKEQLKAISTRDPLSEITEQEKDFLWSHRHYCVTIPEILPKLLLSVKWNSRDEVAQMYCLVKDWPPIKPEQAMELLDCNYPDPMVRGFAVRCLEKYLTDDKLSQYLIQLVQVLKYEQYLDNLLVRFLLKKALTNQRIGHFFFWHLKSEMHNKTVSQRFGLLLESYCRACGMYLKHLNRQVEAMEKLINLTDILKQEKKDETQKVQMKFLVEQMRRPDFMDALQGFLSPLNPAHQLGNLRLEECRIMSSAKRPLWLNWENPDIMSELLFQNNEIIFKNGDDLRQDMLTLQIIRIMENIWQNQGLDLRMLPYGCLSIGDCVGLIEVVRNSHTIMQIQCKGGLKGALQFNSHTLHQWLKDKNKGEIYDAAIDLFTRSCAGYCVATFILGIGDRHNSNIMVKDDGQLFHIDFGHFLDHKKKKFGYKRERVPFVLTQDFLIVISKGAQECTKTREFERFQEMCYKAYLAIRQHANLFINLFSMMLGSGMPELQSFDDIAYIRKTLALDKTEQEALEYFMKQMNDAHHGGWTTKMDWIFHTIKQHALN
PI3Kα (alpha), sequence (P27986 whole entry partner): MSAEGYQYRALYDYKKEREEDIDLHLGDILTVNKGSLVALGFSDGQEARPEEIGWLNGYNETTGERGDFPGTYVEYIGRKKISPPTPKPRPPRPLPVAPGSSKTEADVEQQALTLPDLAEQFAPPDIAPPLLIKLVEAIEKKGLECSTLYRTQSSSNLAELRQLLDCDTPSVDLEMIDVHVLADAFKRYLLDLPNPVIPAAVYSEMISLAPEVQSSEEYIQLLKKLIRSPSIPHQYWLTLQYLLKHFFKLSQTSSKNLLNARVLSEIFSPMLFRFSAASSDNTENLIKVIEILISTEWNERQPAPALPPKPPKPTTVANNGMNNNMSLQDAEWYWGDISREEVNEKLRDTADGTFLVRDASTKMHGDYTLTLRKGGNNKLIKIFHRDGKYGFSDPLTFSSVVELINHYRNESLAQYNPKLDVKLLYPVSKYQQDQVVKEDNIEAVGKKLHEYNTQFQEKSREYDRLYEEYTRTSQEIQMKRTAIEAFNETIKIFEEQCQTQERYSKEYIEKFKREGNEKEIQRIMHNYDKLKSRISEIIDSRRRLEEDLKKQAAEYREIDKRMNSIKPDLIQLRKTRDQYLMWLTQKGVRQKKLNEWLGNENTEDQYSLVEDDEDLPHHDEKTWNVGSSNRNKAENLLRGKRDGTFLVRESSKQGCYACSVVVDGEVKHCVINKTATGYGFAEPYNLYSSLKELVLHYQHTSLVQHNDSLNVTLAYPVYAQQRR

CC[C@H](Oc1cc2c3c(c1)nc(-c1ccc4oc(N)nc4c1)n3CCCCO2)C(=O)O [Example 313, (S)-2-((1-(2-Aminobenzo[d]oxazol-5-yl)-7,8,9,10-tetrahydro-6-oxa-2,10a-diazacycloocta[cd]inden-4-yl)oxy)butanoic acid]
Ki: 0.00209 µM
